Read-outs that look alike come from different tables or passages of the source.
Assays:
Format in all cases: cell-based
HiBiT-tagged SALL4 = target: T1, HiBiT-tagged SALL4 (Homo sapiens, UniProt Q96SW2+Q9UJQ4); assay: Degradation assay for SALL4 (HiBiT tag bioluminescence assay); settings: HT-1080 SALL4 HiBiT reporter cells; for DC50: read-out: HiBiT SALL4: DC50
T1 construct: expressed in transfected cells; host or cells: HT-1080 (ATCC CCL-121), lentiviral transduction
Experimental: (§1) About 10,000 cells in complete DMEM cell culture media were seeded per well. Assay plates were incubated at 37° C. with 5% CO2 for hours, followed by the assessment of IKZF1 or SALL4 degradation using the Nano-Glo HiBiT Lytic Detection Reagent (Cat #N3050, Promega) according to the manufacturer's instruction. Luminescence was then measured with an EnVision plate reader (PerkinElmer) or a PHERAstar plate reader (BMG Labtech). All IKZF1 or SALL4 degradation curves were processed using Collaborative Drug Discovery Vault softwares. IKZF1 or SALL4 levels in compound-treated wells were normalized to that of DMSO control and expressed as Percent of Control (PoC, y). A four Parameter Logistic Model was used to determine the compound's EC50 and DC50, using the following equation:
(§2) A=Ymin (lowest IKZF1 or SALL4 level normalized to DMSO control in response to compound treatment, as determined by curve fit)
(§3) B=Ymax (IKZF1 or SALL4 level in DMSO control)
(§4) C=EC50 half degradation concentration
(§5) EC50=the concentration of compound when y=(Ymax−Ymin)/2
(§6) DC50=test sample concentration when IKZF1 or SALL4 readings y=50% DMSO-treated samples
(§7) y=IKZF1 or SALL4 readings after test sample treatment (normalized to IKZF1 or SALL4 readings in DMSO-treated samples)
(§8) Dmax represents the maximum percentage of IKZF1 or SALL4 protein degradation induced by compound treatment.

HiBiT-tagged IKZF1 [1] = target: T2, HiBiT-tagged IKZF1 (Homo sapiens, UniProt Q13422+Q96SW2); assay: Degradation assay for IKZF1 (HiBiT tag bioluminescence assay); settings: HT-1080 IKZF1 HiBiT reporter cells; for DC50: read-out: HiBiT IKZF1: DC50
T2 construct: expressed in transfected cells; host or cells: HT-1080 (ATCC CCL-121), lentiviral transduction
Experimental: as §1, §2, §3, §4, §5, §6, §7, §8

HiBiT-tagged IKZF1 [2] = target: T2, HiBiT-tagged IKZF1; assay: IKZF1 protein degradation kinetics (IKZF1 HiBiT degradation assay, incubation 1, 2 or 4 hours)
Source text: The following is a general method for testing compounds-induced degradation of HiBiT-tagged IKZF1 or SALL4 overexpressed in a human cell line, for example, the HT-1080 cell line (American Type Culture Collection (ATCC), catalog number CCL-121). The HT-1080 IKZF1 (or SALL4) HiBiT reporter cell line was engineered via lentiviral transduction to stably overexpress GSPT1 (Δ1-138)/G575N and HiBiT-tagged IKZF1 or SALL4. The HT-1080 IKZF1 (or SALL4) HiBiT reporter cell line was maintained in DMEM media supplemented with 10% fetal bovine serum, IX sodium pyruvate, 1× non-essential amino acids, IX glutamine, 100 U/ml penicillin, and 100 μg/mL streptomycin. The HT-1080 IKZF1 (or SALL4) HiBiT reporter cells were seeded into 384-well plates (Cat #3764, Corning) pre-spotted with DMSO or test compounds. Increasing concentrations of test compounds (ranging from 15.81 pM to 500 nM or from 0.3162 nM to 10 μM at a 3.162-fold increment) or DMSO were dispensed into an empty 384-well plate using an Echo 650 Acoustic Liquid Handler (Beckman Coulter). About 10,000 cells in complete DMEM cell culture media were seeded per well. Assay plates were incubated at 37° C. with 5% CO2 for hours, followed by the assessment of IKZF1 or SALL4 degradation using the Nano-Glo HiBiT Lytic Detection Reagent (Cat #N3050, Promega) according to the manufacturer's instruction. Luminescence was then measured with an EnVision plate reader (PerkinElmer) or a PHERAstar plate reader (BMG Labtech). All IKZF1 or SALL4 degradation curves were processed using Collaborative Drug Discovery Vault softwares. IKZF1 or SALL4 levels in compound-treated wells were normalized to that of DMSO control and expressed as Percent of Control (PoC, y). A four Parameter Logistic Model was used to determine the compound's EC50 and DC50, using the following equation: […]
The IKZF1 protein degradation kinetics of compounds 9-B and 9-A was evaluated using the IKZF1 HiBiT degradation assay as described above except that the incubation time was changed to 1, 2 or 4 hours.

[3] = HT-1080, Table 2, all compounds tested on the same day
[4] = Table 2, all compounds tested on the same day
[5] = HT-1080, Table 1, maximum percentage of protein degradation
[6] = Table 1, performed once with technical duplicates, some compounds tested on different days
[7] = Table 1, maximum percentage of protein degradation
[8] = after 1 hour of compound incubation

T1 sequence (Q9UJQ4 whole entry): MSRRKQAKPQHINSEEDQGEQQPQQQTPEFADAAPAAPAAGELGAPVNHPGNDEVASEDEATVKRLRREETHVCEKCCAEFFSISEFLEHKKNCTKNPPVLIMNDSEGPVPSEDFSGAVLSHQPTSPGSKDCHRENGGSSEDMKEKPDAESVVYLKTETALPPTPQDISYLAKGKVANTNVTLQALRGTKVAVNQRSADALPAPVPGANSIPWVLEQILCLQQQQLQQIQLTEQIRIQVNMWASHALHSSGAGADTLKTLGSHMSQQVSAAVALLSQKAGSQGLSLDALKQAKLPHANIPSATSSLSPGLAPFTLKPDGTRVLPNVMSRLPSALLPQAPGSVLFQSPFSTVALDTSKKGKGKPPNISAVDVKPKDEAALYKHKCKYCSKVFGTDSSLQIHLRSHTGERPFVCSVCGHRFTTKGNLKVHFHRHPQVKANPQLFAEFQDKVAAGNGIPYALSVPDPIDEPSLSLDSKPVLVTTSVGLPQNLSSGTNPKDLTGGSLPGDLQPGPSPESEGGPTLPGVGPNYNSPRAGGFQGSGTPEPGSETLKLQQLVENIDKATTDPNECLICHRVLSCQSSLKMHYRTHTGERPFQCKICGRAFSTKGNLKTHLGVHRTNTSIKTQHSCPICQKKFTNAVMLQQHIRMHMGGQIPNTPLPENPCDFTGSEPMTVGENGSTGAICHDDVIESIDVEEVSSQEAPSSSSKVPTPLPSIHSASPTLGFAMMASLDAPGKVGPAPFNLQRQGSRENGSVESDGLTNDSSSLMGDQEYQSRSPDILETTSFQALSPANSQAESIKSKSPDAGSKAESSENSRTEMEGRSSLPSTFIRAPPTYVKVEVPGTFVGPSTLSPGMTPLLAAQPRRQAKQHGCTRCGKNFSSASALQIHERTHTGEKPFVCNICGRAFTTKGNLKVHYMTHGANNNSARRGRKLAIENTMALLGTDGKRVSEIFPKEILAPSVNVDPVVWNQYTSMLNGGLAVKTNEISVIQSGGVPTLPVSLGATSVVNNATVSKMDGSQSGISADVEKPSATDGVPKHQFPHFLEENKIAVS
T1 sequence (Q96SW2 whole entry): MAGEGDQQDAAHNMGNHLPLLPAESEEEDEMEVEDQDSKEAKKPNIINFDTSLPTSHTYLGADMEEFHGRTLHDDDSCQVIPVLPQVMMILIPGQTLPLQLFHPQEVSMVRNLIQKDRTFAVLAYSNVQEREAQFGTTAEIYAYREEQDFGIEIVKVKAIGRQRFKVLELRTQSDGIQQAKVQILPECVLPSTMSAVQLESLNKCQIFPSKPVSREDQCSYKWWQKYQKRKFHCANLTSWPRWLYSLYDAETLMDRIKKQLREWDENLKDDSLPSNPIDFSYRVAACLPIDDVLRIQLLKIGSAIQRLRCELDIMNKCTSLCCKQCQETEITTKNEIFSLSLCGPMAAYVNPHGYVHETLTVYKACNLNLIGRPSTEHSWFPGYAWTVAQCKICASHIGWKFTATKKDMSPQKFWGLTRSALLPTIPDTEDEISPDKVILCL
T1 sequence (Q16531 whole entry partner): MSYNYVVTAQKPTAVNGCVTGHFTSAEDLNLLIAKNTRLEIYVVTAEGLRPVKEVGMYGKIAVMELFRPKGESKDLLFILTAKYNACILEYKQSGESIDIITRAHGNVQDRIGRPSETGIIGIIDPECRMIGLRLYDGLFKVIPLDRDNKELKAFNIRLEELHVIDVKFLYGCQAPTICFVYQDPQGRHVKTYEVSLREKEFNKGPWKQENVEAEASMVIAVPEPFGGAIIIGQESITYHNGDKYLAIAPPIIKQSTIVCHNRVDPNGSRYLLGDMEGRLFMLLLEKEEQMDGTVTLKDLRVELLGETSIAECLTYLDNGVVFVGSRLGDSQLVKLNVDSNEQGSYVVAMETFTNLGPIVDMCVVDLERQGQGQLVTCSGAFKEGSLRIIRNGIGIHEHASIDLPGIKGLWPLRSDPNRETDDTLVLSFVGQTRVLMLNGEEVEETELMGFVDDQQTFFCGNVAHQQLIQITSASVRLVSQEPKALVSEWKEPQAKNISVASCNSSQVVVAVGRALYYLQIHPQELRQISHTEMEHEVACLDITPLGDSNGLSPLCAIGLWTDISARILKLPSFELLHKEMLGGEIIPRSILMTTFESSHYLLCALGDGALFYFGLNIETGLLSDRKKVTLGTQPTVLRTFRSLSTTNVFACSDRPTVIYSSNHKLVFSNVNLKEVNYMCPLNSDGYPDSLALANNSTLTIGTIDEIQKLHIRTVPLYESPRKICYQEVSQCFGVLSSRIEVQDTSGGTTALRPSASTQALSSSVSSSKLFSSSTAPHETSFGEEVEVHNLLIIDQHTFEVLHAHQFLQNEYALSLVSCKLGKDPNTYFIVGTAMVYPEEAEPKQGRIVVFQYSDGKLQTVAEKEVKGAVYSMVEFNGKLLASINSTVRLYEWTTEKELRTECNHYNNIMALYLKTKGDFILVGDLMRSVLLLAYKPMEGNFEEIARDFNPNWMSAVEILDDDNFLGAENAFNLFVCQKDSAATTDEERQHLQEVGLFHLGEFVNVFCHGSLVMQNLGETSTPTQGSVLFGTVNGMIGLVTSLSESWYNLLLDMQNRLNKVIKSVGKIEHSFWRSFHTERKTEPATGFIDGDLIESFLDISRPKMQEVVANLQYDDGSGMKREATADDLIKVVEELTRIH
T2 sequence (Q13422 whole entry): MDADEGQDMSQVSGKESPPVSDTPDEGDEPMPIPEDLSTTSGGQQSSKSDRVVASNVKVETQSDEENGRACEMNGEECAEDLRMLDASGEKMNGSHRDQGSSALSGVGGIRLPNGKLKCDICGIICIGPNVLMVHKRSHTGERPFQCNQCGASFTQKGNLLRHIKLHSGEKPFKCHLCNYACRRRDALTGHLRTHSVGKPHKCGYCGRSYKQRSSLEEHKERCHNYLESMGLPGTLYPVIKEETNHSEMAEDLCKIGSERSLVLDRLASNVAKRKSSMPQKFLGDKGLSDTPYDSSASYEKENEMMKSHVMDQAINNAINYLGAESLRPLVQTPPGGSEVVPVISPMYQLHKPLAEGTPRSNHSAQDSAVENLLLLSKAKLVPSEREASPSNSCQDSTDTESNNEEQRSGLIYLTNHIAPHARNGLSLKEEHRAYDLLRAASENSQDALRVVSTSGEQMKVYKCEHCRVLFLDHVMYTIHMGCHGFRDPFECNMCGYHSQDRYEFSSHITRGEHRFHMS
T2 sequence (Q96SW2 whole entry): as the sequence (Q96SW2 whole entry) above
T2 sequence (Q16531 whole entry partner): as the sequence (Q16531 whole entry partner) above

Row | Dmax (HiBiT-tagged SALL4; [3]) | DC50 (HiBiT-tagged SALL4; [4]) | Dmax (HiBiT-tagged IKZF1 [1]; [3]) | DC50 (HiBiT-tagged IKZF1 [1]; [4]) | Dmax (HiBiT-tagged SALL4; [5]) | DC50 (HiBiT-tagged SALL4; [6]) | Dmax (HiBiT-tagged IKZF1 [1]; [5]) | DC50 (HiBiT-tagged IKZF1 [1]; [6]) | SMILES | other results
1 | 64.6% | 5.2 nM | 93.5% | 0.157 nM | – | – | – | – | O=C1CCC(N2C(=O)c3cccc4c(Cc5ccc(CN6CCOCC6)cc5)ccc2c34)C(=O)N1 (stereo not shown) [Compound 19] | –
2 | – | – | – | – | 34.9% | > 10000 nM | 75.2% | 2.37 nM | O=C1CCC(N2C(=O)c3cc(F)cc4c(Cc5ccc(CN6CCOCC6)cc5F)ccc2c34)C(=O)N1 (stereo not shown) [Compound 8] | –
3 | – | – | – | – | 33.9% | > 10000 nM | 66.2% | 2.19 nM | O=C1CCC(N2C(=O)c3cc(F)cc4c(Cc5ccc(CN6CCC(N7CCOCC7)CC6)cc5F)ccc2c34)C(=O)N1 (stereo not shown) [Compound 11] | –
4 | – | – | – | – | 33.7% | > 10000 nM | 74.6% | 0.74 nM | O=C1CCC(N2C(=O)c3cc(F)cc4c(Cc5ccc(CN6CC(N7CCOCC7)C6)cc5F)ccc2c34)C(=O)N1 (stereo not shown) [Compound 6] | –
5 | – | – | – | – | 57.4% | 117 nM | 93.2% | 0.025 nM | N#Cc1ccc2c(c1)OC[C@H]1CN(Cc3ccc(Cc4ccc5c6c(cc(F)cc46)C(=O)N5C4CCC(=O)NC4=O)cc3)CCN21 (stereo partly shown) [Compound 1] | –
6 | – | – | – | – | 45.4% | > 10000 nM | 86.3% | 0.13 nM | O=C1CCC(N2C(=O)c3cc(F)cc4c(Cc5ccc(CN6CCC7(CCCO7)CC6)cc5F)ccc2c34)C(=O)N1 (stereo not shown) [Compound 7] | –
7 | 57% | 292 nM | 93.1% | 0.185 nM | 55.2% | 328 nM | 89.9% | 0.23 nM | N#Cc1ccc(N2CCN(Cc3ccc(Cc4ccc5c6c(cc(F)cc46)C(=O)N5[C@@H]4CCC(=O)NC4=O)cc3)CC2)c(F)c1 (single isomer, unassigned) [Compound 9-A] | DC50 (HiBiT-tagged IKZF1 [2]; [8]): ~8 nM; Dmax (HiBiT-tagged IKZF1 [2]; [8]): ~68%; DC50 (HiBiT-tagged IKZF1 [2]; after 4 hours of incubation): 0.6 nM; Dmax (HiBiT-tagged IKZF1 [2]; after 4 hours of incubation): 88%
8 | – | – | – | – | 32.5% | > 10000 nM | 69.3% | 5.89 nM | O=C1CCC(N2C(=O)c3cc(F)cc4c(Cc5ccc(CN6CCOCC6)cc5)ccc2c34)C(=O)N1 (stereo not shown) [Compound 12] | –

Further lines, the molecule ahead of its results:

Row | SMILES | Dmax (HiBiT-tagged SALL4; [3]) | DC50 (HiBiT-tagged SALL4; [4]) | Dmax (HiBiT-tagged IKZF1 [1]; [3]) | DC50 (HiBiT-tagged IKZF1 [1]; [4]) | Dmax (HiBiT-tagged SALL4; [5]) | DC50 (HiBiT-tagged SALL4; [6]) | Dmax (HiBiT-tagged IKZF1 [1]; [5]) | DC50 (HiBiT-tagged IKZF1 [1]; [6]) | other results
9 | N#Cc1cnc2c(c1)OC[C@H]1CN(Cc3ccc(Cc4ccc5c6c(cccc46)C(=O)N5C4CCC(=O)NC4=O)c(F)c3)CCN21 (stereo partly shown) [Compound 4] | – | – | – | – | 68.6% | 1 nM | 93.5% | 0.026 nM | –
10 | N#Cc1ccc(N2CCN(Cc3ccc(Cc4ccc5c6c(ccc(F)c46)C(=O)N5C4CCC(=O)NC4=O)cc3)CC2)c(F)c1 (stereo not shown) [Compound 14] | 79.3% | 2 nM | 89.9% | 1 nM | – | – | – | – | –
11 | N#Cc1ccc(N2CCN(Cc3ccc(Cc4ccc5c6c(cccc46)C(=O)N5C4CCC(=O)NC4=O)c(F)c3)CC2)c(F)c1 (stereo not shown) [Compound 18] | 80.5% | < 0.3 nM | 96.1% | 0.014 nM | – | – | – | – | –
12 | N#Cc1ccc(N2CCN(Cc3ccc(Cc4ccc5c6c(cc(Br)cc46)C(=O)N5C4CCC(=O)NC4=O)cc3)CC2)c(F)c1 (stereo not shown) [Compound 16] | 65.8% | 772 nM | 92.2% | 1.23 nM | – | – | – | – | –
13 | N#Cc1cnc2c(c1)OC[C@H]1CN(Cc3ccc(Cc4ccc5c6c(cc(F)cc46)C(=O)N5C4CCC(=O)NC4=O)c(F)c3)CCN21 (stereo partly shown) [Compound 10] | – | – | – | – | 29.4% | > 10000 nM | 88.3% | 0.065 nM | –
14 | N#Cc1ccc2c(c1)OC[C@H]1CN(Cc3ccc(Cc4ccc5c6c(cccc46)C(=O)N5C4CCC(=O)NC4=O)cc3)CCN21 (stereo partly shown) [Compound 3] | – | – | – | – | 68% | 2.4 nM | 93.3% | 0.038 nM | –
15 | N#Cc1ccc(N2CCN(Cc3ccc(Cc4ccc5c6c(cc(Cl)cc46)C(=O)N5C4CCC(=O)NC4=O)cc3)CC2)c(F)c1 (stereo not shown) [Compound 17] | 11.4% | > 10000 nM | 41.1% | > 10 nM | – | – | – | – | –
16 | N#Cc1ccc2c(c1)OC[C@H]1CN(Cc3ccc(Cc4ccc5c6c(cccc46)C(=O)N5C4CCC(=O)NC4=O)cc3)CCN21 (stereo partly shown) [Compound 5] | – | – | – | – | – | 2 nM | – | 0.017 nM | HiBiT SALL4: Dmax (HiBiT-tagged SALL4; [7]): 76.5%; HiBiT IKZF1: Dmax (HiBiT-tagged IKZF1 [1]; [7]): 94.1%
17 | N#Cc1ccc(N2CCN(Cc3ccc(Cc4ccc5c6c(cccc46)C(=O)N5C4CCC(=O)NC4=O)cc3)CC2)c(F)c1 (stereo not shown) [Compound 20] | 79.3% | < 0.3 nM | 96.9% | 0.014 nM | – | – | – | – | –
18 | N#Cc1ccc(N2CCN(Cc3ccc(Cc4ccc5c6c(c(F)ccc46)C(=O)N5C4CCC(=O)NC4=O)cc3)CC2)c(F)c1 (stereo not shown) [Compound 15] | 28.5% | > 10000 nM | 60.1% | 39.1 nM | – | – | – | – | –
19 | N#Cc1ccc2c(c1)OC[C@H]1CN(Cc3ccc(Cc4ccc5c6c(cc(F)cc46)C(=O)N5C4CCC(=O)NC4=O)cn3)CCN21 (stereo partly shown) [Compound 2] | – | – | – | – | 53.2% | 400 nM | 91.8% | 0.022 nM | –
20 | CC(C)(C)N1CCN(Cc2ccc(Cc3ccc4c5c(cc(F)cc35)C(=O)N4C3CCC(=O)NC3=O)c(F)c2)CC1 (stereo not shown) [Compound 13] | – | – | – | – | 49.1% | > 10000 nM | 87.3% | 1.22 nM | –

Source: patent publication US20240360150A1, “ISOINDOLINONE COMPOUNDS AND USES THEREOF” (HANGZHOU GLUBIO PHARMACEUTICAL CO. LTD., priority 2021, published 2024)
